Tests used:
BTK-WT = target: T1, BTK-WT (Homo sapiens, UniProt Q06187); experiment: Btk in vitro inhibitory activity (one of Method A TR-FRET, Method B electrophoretic mobility shift, Method C radiometric filter binding); format: biochemical; details: D-compounds panel data; read-out: IC50 BTK-WT
T1 construct: purified from insect cells as a full-length construct containing an N-terminal 6X-His tag; His6 (N); made in house; host or cells: insect cells (baculovirus Sf21 in Method B)

EGFR = EGFR (Homo sapiens, UniProt P00533); experiment: Inhibition of a panel of kinases, in vitro HotSpot kinase assay: EGFR; format: biochemical; details: D-compounds panel data; 1 μM ATP
Description: The degree of inhibition of a panel of kinases is determined using the in vitro HotSpot kinase assay (purified enzymes, ^33P-ATP, an appropriate substrate and 1 μM ATP).

Sequence of EGFR (P00533 25-1210): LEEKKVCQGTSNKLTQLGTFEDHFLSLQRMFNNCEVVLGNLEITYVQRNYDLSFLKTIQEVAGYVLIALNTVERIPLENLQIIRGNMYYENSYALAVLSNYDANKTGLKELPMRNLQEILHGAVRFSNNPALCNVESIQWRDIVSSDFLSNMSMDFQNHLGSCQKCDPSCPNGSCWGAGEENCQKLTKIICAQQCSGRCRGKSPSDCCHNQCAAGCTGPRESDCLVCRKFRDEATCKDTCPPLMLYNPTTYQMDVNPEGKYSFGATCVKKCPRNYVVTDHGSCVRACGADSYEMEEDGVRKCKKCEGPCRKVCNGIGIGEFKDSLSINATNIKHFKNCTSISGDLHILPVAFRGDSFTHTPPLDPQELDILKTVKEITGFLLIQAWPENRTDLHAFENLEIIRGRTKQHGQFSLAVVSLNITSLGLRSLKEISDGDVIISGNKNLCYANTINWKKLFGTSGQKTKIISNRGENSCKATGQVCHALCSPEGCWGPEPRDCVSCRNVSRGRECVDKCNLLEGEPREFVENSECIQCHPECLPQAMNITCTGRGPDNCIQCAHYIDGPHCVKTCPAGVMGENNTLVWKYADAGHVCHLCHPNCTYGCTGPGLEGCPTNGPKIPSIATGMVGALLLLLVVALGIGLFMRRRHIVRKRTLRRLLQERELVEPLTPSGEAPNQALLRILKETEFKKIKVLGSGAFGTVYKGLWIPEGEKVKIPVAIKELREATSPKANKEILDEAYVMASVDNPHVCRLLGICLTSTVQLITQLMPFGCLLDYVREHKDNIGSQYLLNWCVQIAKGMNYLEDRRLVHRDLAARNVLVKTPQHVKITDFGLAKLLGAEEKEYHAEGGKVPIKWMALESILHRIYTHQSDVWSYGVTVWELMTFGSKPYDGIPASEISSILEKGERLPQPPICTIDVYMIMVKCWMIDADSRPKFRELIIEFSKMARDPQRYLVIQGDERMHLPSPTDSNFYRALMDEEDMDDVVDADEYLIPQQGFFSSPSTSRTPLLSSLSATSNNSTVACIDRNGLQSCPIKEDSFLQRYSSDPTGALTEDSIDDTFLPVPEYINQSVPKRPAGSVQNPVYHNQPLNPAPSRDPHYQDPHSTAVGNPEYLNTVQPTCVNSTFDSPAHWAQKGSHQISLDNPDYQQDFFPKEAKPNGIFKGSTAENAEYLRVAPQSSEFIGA
T1 sequence (Q06187 whole entry): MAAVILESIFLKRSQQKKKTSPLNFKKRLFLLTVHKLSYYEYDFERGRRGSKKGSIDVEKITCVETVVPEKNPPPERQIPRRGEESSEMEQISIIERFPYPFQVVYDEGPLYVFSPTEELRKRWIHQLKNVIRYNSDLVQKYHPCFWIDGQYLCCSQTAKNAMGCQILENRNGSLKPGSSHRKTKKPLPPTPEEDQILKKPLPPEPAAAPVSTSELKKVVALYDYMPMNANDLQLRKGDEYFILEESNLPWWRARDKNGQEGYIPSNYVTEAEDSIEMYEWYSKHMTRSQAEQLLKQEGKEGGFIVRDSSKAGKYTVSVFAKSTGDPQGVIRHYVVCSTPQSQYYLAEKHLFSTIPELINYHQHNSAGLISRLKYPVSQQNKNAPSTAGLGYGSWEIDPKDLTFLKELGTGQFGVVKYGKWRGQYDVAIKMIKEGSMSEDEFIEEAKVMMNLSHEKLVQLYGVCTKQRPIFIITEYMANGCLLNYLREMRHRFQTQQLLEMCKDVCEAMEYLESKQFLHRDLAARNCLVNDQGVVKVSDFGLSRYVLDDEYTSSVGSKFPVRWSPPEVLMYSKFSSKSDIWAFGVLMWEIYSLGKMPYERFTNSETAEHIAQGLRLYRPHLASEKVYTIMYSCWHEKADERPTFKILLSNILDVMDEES

Row | IC50 (BTK-WT) [µM] | IC50 (EGFR) [µM] | Structure (SMILES)
1 | 0.01 to 0.1 | 1 to 10 | C[C@@H]1[C@H](NC(=O)c2ccc(C3CC3)cc2F)CCCN1c1cnc(C(N)=O)c(Nc2cnn(C)c2)c1 [Example D-117, 5-[(2R,3R)-3-(4-cyclopropyl-2-fluorobenzamido)-2-methylpiperidin-1-yl]-3-[(1-methyl-1H-pyrazol-4-yl)amino]pyridine-2-carboxamide]
2 | ≤ 0.01 | 0.1 to 1 | Cc1cc(Nc2nc(N3CCC[C@@H](NC(=O)c4ccc(C(C)(C)O)cc4)[C@H]3C)cnc2C(N)=O)sn1 [Example D-159, 5-[(2R,3R)-3-[4-(2-hydroxypropan-2-yl)benzamido]-2-methylpiperidin-1-yl]-3-[(3-methyl-1,2-thiazol-5-yl)amino]pyrazine-2-carboxamide]
3 | ≤ 0.01 | 0.1 to 1 | C[C@@H]1[C@H](NC(=O)c2ccc(C3CC3)cc2)CCCN1c1cnc(C(N)=O)c(Nc2ccc(N3CCN(C)CC3)cc2F)n1 [Example D-103, 5-[(2R,3R)-3-(4-cyclopropylbenzamido)-2-methylpiperidin-1-yl]-3-{[2-fluoro-4-(4-methylpiperazin-1-yl)phenyl]amino}pyrazine-2-carboxamide]
4 | ≤ 0.01 | 1 to 10 | C[C@H]1CC[C@@H](NC(=O)c2ccc(C3CC3)cc2)CN1c1cnc(C(N)=O)c(Nc2cnn(C)c2)n1 [Example D-142, 5-[(2S,5R)-5-(4-cyclopropylbenzamido)-2-methylpiperidin-1-yl]-3-[(1-methyl-1H-pyrazol-4-yl)amino]pyrazine-2-carboxamide]
5 | 0.01 to 0.1 | > 10 | C[C@@H]1[C@H](NC(=O)c2ccc(C3CC3)cc2F)CCCN1c1cnc(C(N)=O)c(Nc2ccc(CN3CCN(C)CC3)cn2)n1 [Example D-132, 5-[(2R,3R)-3-(4-cyclopropyl-2-fluorobenzamido)-2-methylpiperidin-1-yl]-3-({5-[(4-methylpiperazin-1-yl)methyl]pyridin-2-yl}amino)pyrazine-2-carboxamide]
6 | ≤ 0.01 | 1 to 10 | C[C@@H]1[C@H](NC(=O)c2ccc(C(C)(C)N(C)C)cc2)CCCN1c1cnc(C(N)=O)c(Nc2cnn(C)c2)n1 [Example D-108, 5-[(2R,3R)-3-{4-[2-(dimethylamino)propan-2-yl]benzamido}-2-methylpiperidin-1-yl]-3-[(1-methyl-1H-pyrazol-4-yl)amino]pyrazine-2-carboxamide]
7 | ≤ 0.01 | 1 to 10 | CC(=O)NC(C)(C)c1ccc(C(=O)N[C@@H]2CCCN(c3cnc(C(N)=O)c(Nc4cnn(C)c4)n3)[C@@H]2C)cc1 [Example D-107, 5-[(2R,3R)-3-[4-(2-acetamidopropan-2-yl)benzamido]-2-methylpiperidin-1-yl]-3-[(1-methyl-1H-pyrazol-4-yl)amino]pyrazine-2-carboxamide]
8 | ≤ 0.01 | 1 to 10 | CN1CCN(Cc2ccc(Nc3nc(N4CCC[C@@H](n5ccc6cc(C7CC7)ccc6c5=O)C4)cnc3C(N)=O)cc2)CC1 [Example D-167, 5-[(3R)-3-(6-cyclopropyl-1-oxo-1,2-dihydroisoquinolin-2-yl)piperidin-1-yl]-3-({4-[(4-methylpiperazin-1-yl)methyl]phenyl}amino)pyrazine-2-carboxamide]
9 | ≤ 0.01 | 1 to 10 | C[C@@H]1[C@H](NC(=O)N(C)C)CCCN1c1cnc(C(N)=O)c(Nc2cc(CN3CCOCC3)ns2)n1 [Example D-118, 5-[(2R,3R)-3-[(dimethylcarbamoyl)amino]-2-methylpiperidin-1-yl]-3-{[3-(morpholin-4-ylmethyl)-1,2-thiazol-5-yl]amino}pyrazine-2-carboxamide]
10 | ≤ 0.01 | 1 to 10 | C[C@@H]1[C@H](NC(=O)c2ccc(C3CC3)cc2)CCCN1c1cnc(C(N)=O)c(Nc2ccc(N3CCC4(CC3)COC4)cc2)n1 [Example D-99, 5-[(2R,3R)-3-(4-cyclopropylbenzamido)-2-methylpiperidin-1-yl]-3-[(4-{2-oxa-7-azaspiro[3.5]nonan-7-yl}phenyl)amino]pyrazine-2-carboxamide]
11 | 0.01 to 0.1 | > 10 | C[C@@H]1CC[C@H](NC(=O)c2ccc(C3CC3)cc2)CN1c1cnc(C(N)=O)c(Nc2ccc(N3CCN(C)CC3)c(F)c2)n1 [Example D-149, 5-[(2R,5 S)-5-(4-cyclopropylbenzamido)-2-methylpiperidin-1-yl]-3-{[3-fluoro-4-(4-methylpiperazin-1-yl)phenyl]amino}pyrazine-2-carboxamide]
12 | ≤ 0.01 | > 10 | CN(C)c1ccc2c(c1)CCN([C@@H]1CCCN(c3cnc(C(N)=O)c(Nc4cnn(C)c4)n3)C1)C2=O [Example D-156, 5-[(3R)-3-[6-(dimethylamino)-1-oxo-1,2,3,4-tetrahydroisoquinolin-2-yl]piperidin-1-yl]-3-[(1-methyl-1H-pyrazol-4-yl)amino]pyrazine-2-carboxamide]
13 | 0.01 to 0.1 | 0.1 to 1 | Cc1ccc(-c2cnc([C@@H]3CCCN(c4cnc(C(N)=O)c(Nc5cc(C)ns5)n4)[C@@H]3C)[nH]2)cc1 [Example D-131, 3-[(3-methyl-1,2-thiazol-5-yl)amino]-5-[(2R,3R)-2-methyl-3-[5-(4-methylphenyl)-1H-imidazol-2-yl]piperidin-1-yl]pyrazine-2-carboxamide]
14 | ≤ 0.01 | 0.1 to 1 | C[C@@H]1[C@H](NC(=O)N(C)C)CCCN1c1cnc(C(N)=O)c(Nc2cc(C3CCN(C4CCCC4)CC3)ns2)n1 [Example D-163, 3-{[3-(1-cyclopentylpiperidin-4-yl)-1,2-thiazol-5-yl]amino}-5-[(2R,3R)-3-[(dimethylcarbamoyl)amino]-2-methylpiperidin-1-yl]pyrazine-2-carboxamide]
15 | 0.01 to 0.1 | 1 to 10 | C[C@@H]1[C@H](NC(=O)N(C)C)CCCN1c1cnc(C(N)=O)c(Nc2ccc3cccnc3c2)n1 [Example D-121, 5-[(2R,3R)-3-[(dimethylcarbamoyl)amino]-2-methylpiperidin-1-yl]-3-[(quinolin-7-yl)amino]pyrazine-2-carboxamide]
16 | ≤ 0.01 | 1 to 10 | CC(C)n1cc(Nc2nc(N3CCC[C@@H](NC(=O)c4ccc(C5CC5)cc4F)[C@H]3C)cnc2C(N)=O)cn1 [Example D-123, 5-[(2R,3R)-3-(4-cyclopropyl-2-fluorobenzamido)-2-methylpiperidin-1-yl]-3-{[1-(propan-2-yl)-1H-pyrazol-4-yl]amino}pyrazine-2-carboxamide]
17 | ≤ 0.01 | 1 to 10 | Cc1cc(Nc2cc(N3CCC[C@@H](NC(=O)c4ccc(C5CC5)cc4F)[C@H]3C)cnc2C(N)=O)sn1 [Example D-116, 5-[(2R,3R)-3-(4-cyclopropyl-2-fluorobenzamido)-2-methylpiperidin-1-yl]-3-[(3-methyl-1,2-thiazol-5-yl)amino]pyridine-2-carboxamide]

Row | Structure (SMILES) | IC50 (BTK-WT) [µM] | IC50 (EGFR) [µM]
18 | C[C@@H]1[C@H](NC(=O)N(C)C)CCCN1c1cnc(C(N)=O)c(Nc2ccc(N3CCN(C)CC3)cc2)c1 [Example D-127, 5-[(2R,3R)-3-[(dimethylcarbamoyl)amino]-2-methylpiperidin-1-yl]-3-{[4-(4-methylpiperazin-1-yl)phenyl]amino}pyridine-2-carboxamide] | 0.1 to 1 | > 10
